Reference: article PMC6274095 (Molecules, 2016)
Blank lines part the entries; values can stand above or below the compound they belong to.

Key:
[1] = target: T1, TRPV4 ion channel (Homo sapiens, UniProt Q9HBA0); test: Calcium mobilization assay in HEK293/TRPV4 cells (GSK1016790A-stimulated); assay type: cell-based
T1 construct: host or cells: HEK293
Procedure: TRPV4 is another critical TRP ion channel that plays a role in thermal and mechanical hyperalgesia. TRPV4 shares similarity with TRPA1 [24, 25]. […] Firstly, the activating effect of the TRPV4 agonist GSK1016790A was tested. […] Thereafter, cardamonin was incubated with HEK293/TRPV4 cells at 90 μM, 30 μM, and 10 μM prior to 83 nM GSK1016790A stimulation. HEK293/TRPV4 cells treated in the absence of the test compound was the negative control and 330 μM ruthenium red was performed as the positive control.
(§1) Recombinant HEK293/TRPA1, HEK293/TRPV1, and HEK293/TRPV4 cell lines were generated by HD Bioscience Co. Ltd (Shanghai, China) following standard procedures as reported previously. HEK293/TRPA1 and HEK293/TRPV4 cells were cultured in complete DMEM medium with 100 μg/mL hygromycin B, 50 U/mL penicillin, and 100 μg/mL streptomycin. HEK293/TRPV1 cells were cultured with 350 μg/mL zeocin and 5 μg/mL blasticidin in complete DMEM culture medium.
(§2) Calcium influx upon TRPA1 activation by agonist stimulation was measured using calcium mobilization assay as reported previously. Briefly, cells were plated into 96-well microplates (matrigel coated) at a density of 3.5 × 10^4 cells per well. The plates were incubated at 37 °C with 5% CO2 overnight to allow the cells to recover. On the following day, replace cell culture medium with loading buffer containing Fluo-4 AM (MD, CA, USA), kept the plate at 37 °C for 30 min. Test compound was added to cells 10 min prior to the onset of TRAP1 agonist cinnamaldehyde, TRPV1 agonist 2APB, or TRPV4 agonist GSK1016790A. The calcium signal was captured with Flexstation II reader (MD, CA, USA) at 37 °C for TRPA1 and TRPV1 activation. The reader chamber was set at 24 °C for TRPV4 activation.

[2] = target: T2, TRPV1 channel (Homo sapiens, UniProt Q8NER1); test: Calcium mobilization assay in HEK293/TRPV1 cells (2APB-stimulated); assay type: cell-based
T2 construct: host or cells: HEK293
Procedure: as §1, §2

[3] = target: T3, hTRPA1 cation channel (Homo sapiens, UniProt O75762); details: HEK293/TRPA1 activation; cited from earlier work
T3 construct: host or cells: HEK293

[4] = target: T3, hTRPA1 cation channel; test: Calcium mobilization assay in HEK293/TRPA1 cells (cinnamaldehyde-stimulated); assay type: cell-based
Procedure: To discover a novel TRPA1 antagonist, a small library containing 156 natural chemicals were evaluated for their inhibitory effects on the TRPA1 ion channel at 10 μM (Figure 1A). The compound list was released previously. The cells were pre-incubated with cinnamaldehyde (CA) by its EC80 (90 μΜ) for 10 min and then treated with tested compounds. […] The time-course profile of the calcium signal was recorded (Figure 1B) and the peak value was used for determination of the maximum calcium mobilization.
as §1, §2

[5] = tested on: HEK293 cells; test: HEK293 cell viability, Cell Titer-Glo assay; assay type: cell-based; details: 24 h
Procedure: In order to rule out the possibilities of false positives, we tested whether cardamonin induced cytotoxicity in HEK293 cells. The cells were seeded into 96-well plate and incubated in the presence or absence of cardamonin. HEK293 cells were incubated with cardamonin for 24 h. […] HEK293 cell viability was determined based on quantification of ATP using Cell Titer-Glo® luminescent Assay kit (Promega, Madison, WI, USA), which signals the presence of metabolically-active cells. Briefly, HEK293 cells were seeded into 96-well plates at a cell density of 3.5 × 10^4 cells per well, the plates were kept at 37 °C with 5% CO2 overnight. On the following day, cardamonin was added to the cells from a top concentration of 90 μΜ. The cells treated in the absence of the test compound were the negative control. After incubated for 24 h, Cell Titer-Glo reagent was added to the cells and Luminescence was acquired on EnVision™ 2100 Multilabel Reader (PerkinElmer, Santa Clara, CA, USA).

[6] = tested on: neonatal rat cardiomyocytes (CMs); test: Cardiotoxicity evaluation, xCELLigence RTCA cardio impedance; assay type: cell-based; details: 10 μM
Procedure: To assess the potential adverse risk in cardiomyocytes, we administrated neonatal rat cardiomyocytes (CMs) with cardamonin, tested at 10 μM (22-fold of the IC50 value). Amiodarone (10 μM), an antiarrhythmic drug that delays cardiac repolarization through inhibiting hERG potassium channels [31], was performed as a positive cardio toxic control [32]. […] Amplitude represented the height of the print. […] Cell index represented cell number and viability. […] Cardiotoxicity test of cardamonin was performed with neonatal rat cardiomyocytes that obtained from 24 h Sprague-Dawley rats [47]. Compound treatment and cardiomyocytes impedance profiles were monitored as previously reported by Yu et al. [48]. Briefly, CMs cells were seeded into cardio E-Plate 96 that pre-coated with matrigel. Thereafter, cell culture medium was refreshed every day until CMs presented stable beating patterns. For compound treatment, 10× chemical dose solutions were prepared and added to the cells. The cell impedance was captured using xCELLigence RTCA cardio instrument.

T3 sequence (O75762 whole entry): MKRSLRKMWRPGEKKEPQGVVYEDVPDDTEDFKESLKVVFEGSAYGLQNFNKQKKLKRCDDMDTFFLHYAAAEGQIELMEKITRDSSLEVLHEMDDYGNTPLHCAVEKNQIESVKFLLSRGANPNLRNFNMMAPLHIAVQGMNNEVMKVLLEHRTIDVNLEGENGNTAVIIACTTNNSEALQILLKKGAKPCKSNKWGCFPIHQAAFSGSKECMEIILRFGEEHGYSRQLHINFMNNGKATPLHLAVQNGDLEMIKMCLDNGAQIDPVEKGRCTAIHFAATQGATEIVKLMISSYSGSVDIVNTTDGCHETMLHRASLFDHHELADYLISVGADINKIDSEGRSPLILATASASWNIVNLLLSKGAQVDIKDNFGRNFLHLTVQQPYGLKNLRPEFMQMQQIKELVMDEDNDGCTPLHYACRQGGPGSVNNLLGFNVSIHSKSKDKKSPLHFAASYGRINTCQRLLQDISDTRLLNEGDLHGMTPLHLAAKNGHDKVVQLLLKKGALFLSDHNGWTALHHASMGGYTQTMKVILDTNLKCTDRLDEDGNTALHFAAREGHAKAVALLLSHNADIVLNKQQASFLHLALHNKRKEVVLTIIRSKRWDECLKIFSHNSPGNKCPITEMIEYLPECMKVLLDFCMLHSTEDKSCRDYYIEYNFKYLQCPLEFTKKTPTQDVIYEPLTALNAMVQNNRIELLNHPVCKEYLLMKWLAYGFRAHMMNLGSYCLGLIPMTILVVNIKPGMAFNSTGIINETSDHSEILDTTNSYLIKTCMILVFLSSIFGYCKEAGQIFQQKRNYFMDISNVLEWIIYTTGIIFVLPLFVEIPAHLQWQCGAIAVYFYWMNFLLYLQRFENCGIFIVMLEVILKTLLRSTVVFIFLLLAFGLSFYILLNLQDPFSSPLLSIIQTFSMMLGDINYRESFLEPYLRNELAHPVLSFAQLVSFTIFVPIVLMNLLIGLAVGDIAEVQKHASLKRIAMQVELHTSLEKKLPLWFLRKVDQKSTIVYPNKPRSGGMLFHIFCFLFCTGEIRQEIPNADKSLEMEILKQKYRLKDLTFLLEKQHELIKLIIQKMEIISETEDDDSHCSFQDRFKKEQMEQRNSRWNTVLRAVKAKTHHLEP
T1 sequence (Q9HBA0 whole entry): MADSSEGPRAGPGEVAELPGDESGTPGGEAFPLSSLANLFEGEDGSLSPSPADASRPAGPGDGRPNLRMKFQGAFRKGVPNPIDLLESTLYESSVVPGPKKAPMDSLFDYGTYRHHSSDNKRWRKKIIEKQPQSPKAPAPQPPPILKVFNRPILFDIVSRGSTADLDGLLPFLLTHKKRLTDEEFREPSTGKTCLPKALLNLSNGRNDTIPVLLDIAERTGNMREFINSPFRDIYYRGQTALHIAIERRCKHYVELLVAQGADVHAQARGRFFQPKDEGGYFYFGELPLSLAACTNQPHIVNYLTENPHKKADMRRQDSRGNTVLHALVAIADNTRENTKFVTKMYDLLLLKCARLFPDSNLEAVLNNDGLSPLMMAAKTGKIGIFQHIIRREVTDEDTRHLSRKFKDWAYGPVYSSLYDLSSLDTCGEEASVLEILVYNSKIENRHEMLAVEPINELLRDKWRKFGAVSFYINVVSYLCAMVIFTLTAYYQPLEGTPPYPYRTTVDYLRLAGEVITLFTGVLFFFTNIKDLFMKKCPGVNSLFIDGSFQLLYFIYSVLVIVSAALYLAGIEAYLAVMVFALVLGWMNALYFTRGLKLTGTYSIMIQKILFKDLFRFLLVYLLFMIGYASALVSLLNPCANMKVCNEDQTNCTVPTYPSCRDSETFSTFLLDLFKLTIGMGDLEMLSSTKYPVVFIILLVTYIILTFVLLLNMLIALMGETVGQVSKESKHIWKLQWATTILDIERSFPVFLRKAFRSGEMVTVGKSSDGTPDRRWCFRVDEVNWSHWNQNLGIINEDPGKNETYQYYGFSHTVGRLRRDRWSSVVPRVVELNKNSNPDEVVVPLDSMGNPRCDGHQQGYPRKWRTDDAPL
T2 sequence (Q8NER1 whole entry): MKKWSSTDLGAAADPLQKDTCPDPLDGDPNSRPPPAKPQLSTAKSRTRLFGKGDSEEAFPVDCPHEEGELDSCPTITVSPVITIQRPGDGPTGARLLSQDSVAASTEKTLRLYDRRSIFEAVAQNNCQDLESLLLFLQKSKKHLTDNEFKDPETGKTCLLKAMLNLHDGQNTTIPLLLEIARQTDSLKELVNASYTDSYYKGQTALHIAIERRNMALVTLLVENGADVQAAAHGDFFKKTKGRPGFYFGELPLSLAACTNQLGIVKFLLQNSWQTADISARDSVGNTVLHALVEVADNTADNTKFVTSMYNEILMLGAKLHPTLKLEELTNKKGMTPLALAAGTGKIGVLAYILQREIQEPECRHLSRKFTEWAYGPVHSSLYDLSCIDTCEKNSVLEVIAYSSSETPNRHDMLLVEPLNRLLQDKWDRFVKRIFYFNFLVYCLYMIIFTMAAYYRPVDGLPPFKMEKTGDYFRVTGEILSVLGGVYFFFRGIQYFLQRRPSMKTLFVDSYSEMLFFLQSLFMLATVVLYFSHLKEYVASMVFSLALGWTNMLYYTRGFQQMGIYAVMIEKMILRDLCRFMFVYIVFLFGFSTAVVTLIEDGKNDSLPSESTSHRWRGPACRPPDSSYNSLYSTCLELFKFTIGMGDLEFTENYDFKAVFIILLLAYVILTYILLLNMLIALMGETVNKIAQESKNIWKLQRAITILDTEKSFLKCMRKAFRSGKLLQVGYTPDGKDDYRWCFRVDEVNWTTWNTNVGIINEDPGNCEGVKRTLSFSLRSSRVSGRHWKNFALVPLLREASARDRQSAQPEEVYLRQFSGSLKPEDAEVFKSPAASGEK

Structure (SMILES): CC(C)C[C@H](NC(=O)c1cc2ccccc2s1)C(=O)N1CCN(C(=O)[C@H](CO)NS(=O)(=O)c2ccc(Cl)cc2Cl)CC1 [GSK1016790A]
EC50 [1]: 0.0092 µM

IC50 ([2]; HEK293/TRPV1, 1 mM 2APB stimulation, read-out: IC50, inhibition of TRPV1 activation): 207 µM
IC50 ([1]; HEK293/TRPV4, added 10 min prior to 83 nM GSK1016790A, 24 °C, read-out: IC50, blocking TRPV4 activation): 29.8 µM
Structure (SMILES): Cl.Cl.Cl.Cl.Cl.Cl.N.N.N.N.N.N.N.N.N.N.N.N.N.N.[O-2].[O-2].[Ru+3].[Ru+3].[Ru+4] [ruthenium red, reference compound]

Structure (SMILES): O=C/C=C/c1ccccc1 [cinnamaldehyde]
EC80 of TRPA1 agonist [3]: 90 μΜ

Structure (SMILES): COc1cc(O)cc(O)c1C(=O)/C=C/c1ccccc1 [cardamonin]
IC50 [4]: 0.454 µM
Inhibition of CA induced HEK293/TRPA1 activation (screen) ([4]; 10 μM compound, 90 μM cinnamaldehyde): significantly inhibited
Blockage of TRPA1 activity ([4]; at 90 μM compound): Full blockage
Activation of TRPA1 by compound alone ([4]; without agonist): could not activate TRPA1 alone
Inhibition of calcium influx in HEK293/TRPV1 cells ([2]; 90 μΜ, 30 μΜ and 10 μΜ, pre-treated 10 min, 1 mM 2APB, 37 °C): failed to inhibit calcium influx
Inhibition of TRPV4 calcium signal ([1]; 90 μM, 30 μM and 10 μM prior to 83 nM GSK1016790A): No detectable inhibiting effect
Cytotoxicity in HEK293 cells ([5]; 90 μΜ (top concentration)): slight cell injury
Cytotoxicity in HEK293 cells ([5]; within 30 μΜ, p > 0.05): no detectable cytotoxicity
Amplitude profile of CMs [6]: in accordance with vehicle control
CMs' beating pattern (real-time beating impedance) [6]: did not induce dramatic alteration
CMs' beating rate [6]: not
Cell index (CMs cell number and cell viability) [6]: did not significantly decrease

Structure (SMILES): CCCCc1oc2ccccc2c1C(=O)c1cc(I)c(OCCN(CC)CC)c(I)c1 [amiodarone, reference compound]
CMs' beating rate [6]: significantly decreased
